Where a SMILES comes first, the peptide text is derived from it.
What was measured:
hTAS1R2/hTAS1R3 [1] = target: T1, hTAS1R2/hTAS1R3 (Homo sapiens, UniProt Q7RTX0+Q8TE23); assay: Concentration-response curves of sweeteners in the presence of different lactisole concentrations; assay type: cell-based; details: for Hill slope: constant over tested lactisole concentrations; for increase of EC50 value by lactisole: presence vs absence of lactisole
T1 construct: expressed in transfected cells; host or cells: HEK293T cells stably expressing G16Gust44
T1 sequence (Q8TE23 20-839): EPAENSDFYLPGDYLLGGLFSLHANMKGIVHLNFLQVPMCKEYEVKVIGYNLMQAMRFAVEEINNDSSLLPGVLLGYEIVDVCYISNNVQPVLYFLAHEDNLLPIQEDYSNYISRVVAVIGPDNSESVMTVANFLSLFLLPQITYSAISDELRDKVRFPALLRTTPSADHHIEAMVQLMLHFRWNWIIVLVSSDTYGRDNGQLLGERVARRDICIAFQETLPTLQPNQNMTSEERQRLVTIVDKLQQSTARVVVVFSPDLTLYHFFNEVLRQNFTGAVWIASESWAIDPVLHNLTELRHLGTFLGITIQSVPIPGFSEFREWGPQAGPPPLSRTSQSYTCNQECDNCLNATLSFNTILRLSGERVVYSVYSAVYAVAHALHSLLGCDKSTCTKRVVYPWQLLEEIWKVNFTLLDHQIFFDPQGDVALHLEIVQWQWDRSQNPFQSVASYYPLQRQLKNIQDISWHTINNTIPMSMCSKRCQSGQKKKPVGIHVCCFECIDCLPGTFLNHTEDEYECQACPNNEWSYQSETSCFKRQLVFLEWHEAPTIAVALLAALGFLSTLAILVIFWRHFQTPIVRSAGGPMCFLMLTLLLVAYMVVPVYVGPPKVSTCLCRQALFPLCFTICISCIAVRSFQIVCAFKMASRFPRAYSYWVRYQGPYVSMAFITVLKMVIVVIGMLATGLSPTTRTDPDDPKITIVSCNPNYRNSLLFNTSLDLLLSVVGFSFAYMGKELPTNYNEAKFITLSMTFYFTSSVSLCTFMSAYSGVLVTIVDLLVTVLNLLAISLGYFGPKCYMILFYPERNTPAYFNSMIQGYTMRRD
T1 sequence (Q7RTX0 21-852): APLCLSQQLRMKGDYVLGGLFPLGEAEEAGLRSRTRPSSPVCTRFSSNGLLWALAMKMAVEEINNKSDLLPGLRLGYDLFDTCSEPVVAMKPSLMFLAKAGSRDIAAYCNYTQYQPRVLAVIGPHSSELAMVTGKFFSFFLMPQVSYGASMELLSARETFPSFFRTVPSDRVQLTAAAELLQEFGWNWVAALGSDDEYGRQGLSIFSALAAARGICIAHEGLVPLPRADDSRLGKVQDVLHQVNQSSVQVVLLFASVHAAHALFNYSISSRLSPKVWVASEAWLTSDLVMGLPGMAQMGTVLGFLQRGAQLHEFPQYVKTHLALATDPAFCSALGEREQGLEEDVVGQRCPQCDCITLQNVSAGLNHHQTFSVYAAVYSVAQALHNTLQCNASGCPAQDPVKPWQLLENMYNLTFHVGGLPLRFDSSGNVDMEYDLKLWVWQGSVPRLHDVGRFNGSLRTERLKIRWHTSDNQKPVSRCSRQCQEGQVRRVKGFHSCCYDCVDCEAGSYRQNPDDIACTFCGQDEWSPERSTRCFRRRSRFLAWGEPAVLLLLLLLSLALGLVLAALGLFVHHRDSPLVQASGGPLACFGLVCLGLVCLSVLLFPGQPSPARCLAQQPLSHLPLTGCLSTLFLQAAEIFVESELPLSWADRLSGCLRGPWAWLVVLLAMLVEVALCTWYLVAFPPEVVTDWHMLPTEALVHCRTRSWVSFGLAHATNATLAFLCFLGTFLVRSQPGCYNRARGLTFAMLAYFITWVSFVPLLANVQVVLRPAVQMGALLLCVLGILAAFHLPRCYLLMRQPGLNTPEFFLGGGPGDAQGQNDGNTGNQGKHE

hTAS1R2/hTAS1R3 [2] = target: T1, hTAS1R2/hTAS1R3; assay: Calcium response (FLIPR) of HEK293T-G16Gust44 cells, wild type receptor; assay type: cell-based; details: for EC50 / Emax: wt receptor; for EC50: average ± SD, at least three experiments; for Emax: read-out: maximal signal (% of wt)
Source text: In order to elucidate the putative binding site for NHDC, we cotransfected mixtures of plasmid DNAs for the rat and human TAS1R2 and TAS1R3 receptor subunits in HEK293T cells stably expressing the chimeric G-protein G16Gust44 and measured cellular calcium responses by fluorometry following bath application of various sweet tasting compounds. […].
The cDNAs for TAS1Rs tagged at the C-terminus with the herpes simplex virus glycoprotein D (HSV) were transiently transfected into HEK293T cells stably expressing the chimeric G-protein subunit G16Gust44 [44] using Lipofectamine 2000 (Invitrogen, Carlsbad, CA) according to the manufacturer's protocol. 3–4 hours after transfection, DMEM was replaced by low-glucose DMEM supplemented with GlutaMAX and 10% dialyzed FBS (Invitrogen, Carlsbad, CA). 24 h post transfection, cells were loaded for 1 h with the calcium sensitive dye Fluo4-AM (2 μg/ml in DMEM, Molecular Probes, Carlsbad, CA). Cells were washed 3x in solution C1 (130 mM NaCl, 5 mM KCl, 10 mM Hepes, 2 mM CaCl2, and 5 mM Glucose, pH 7,4). We monitored calcium mobilization following receptor stimulation with sweet tastants by an automated fluorometric imaging plate reader (FLIPR, Molecular Devices, Sunnyvale, CA). Compounds used as stimuli (Sigma-Aldrich, St. Louis, MO; Merck, Whitehouse Station, NJ) were dissolved in C1 solution. All data were collected from at least three independent experiments carried out in duplicate. The obtained calcium signals were corrected for the response of mock transfected cells and normalized to the fluorescence of cells prior to the application of the stimulus using ΔF/F = (F-F0)/F0. […]

Which EC50 (hTAS1R2/hTAS1R3 [1]; 0.0 μM lactisole) does the source give for CC1=CC(=O)NS(=O)(=O)O1 [acesulfame K] here?
Its EC50 is 0.12 ± 0.04 mM.

What about the Hill slope (hTAS1R2/hTAS1R3 [1]) of the same compound?
The Hill slope was ~ 2.

How did the receptor activation (hTAS1R2/hTAS1R3 [2]; human sweet taste receptor) turn out when COc1ccc(CCC(=O)c2c(O)cc(O[C@@H]3O[C@H](CO)[C@@H](O)[C@H](O)[C@H]3O[C@@H]3O[C@@H](C)[C@H](O)[C@@H](O)[C@H]3O)cc2O)cc1O [NHDC, neohesperidin dihydrochalcone] was run?
Its receptor activation is “activates”.

What about the EC50 (hTAS1R2/hTAS1R3 [2]) of the same compound?
The EC50 was 100 ± 60 µM.

And the Emax (hTAS1R2/hTAS1R3 [2])?
Its Emax is 100%.

And the EC50 (hTAS1R2/hTAS1R3 [1]; 0.0 μM lactisole)?
Its EC50 is 0.2 ± 0.1 mM.

And the Hill coefficient (hTAS1R2/hTAS1R3 [1]; 0.0 μM lactisole)?
The Hill coefficient was 0.8.

What about the Hill coefficient (hTAS1R2/hTAS1R3 [1]; 50 μM lactisole) of the same compound?
Its Hill coefficient is 1.2.

What about the Hill coefficient (hTAS1R2/hTAS1R3 [1]; 100 μM lactisole) of the same compound?
Its Hill coefficient is 1.5.

And the “increase of EC50 value by lactisole” value (hTAS1R2/hTAS1R3 [1])?
Its value is “~ fourfold”.

With O=S(=O)(O)NC1CCCCC1 [cyclamate] as the compound, how does the EC50 (hTAS1R2/hTAS1R3 [2]) read?
Its EC50 is 1900 ± 100 µM.

What about the EC50 (hTAS1R2/hTAS1R3 [1]; 0.0 μM lactisole) of the same compound?
The EC50 was 2.2 ± 0.3 mM.

What about the Hill coefficient (hTAS1R2/hTAS1R3 [1]; 50 μM lactisole) of the same compound?
Its Hill coefficient is 2.5.

What about the “increase of EC50 value by lactisole” value (hTAS1R2/hTAS1R3 [1]) of the same compound?
The value was “~ fourfold”.

How did the EC50 (hTAS1R2/hTAS1R3 [2]) turn out when COC(=O)[C@H](Cc1ccccc1)NC(=O)[C@@H](N)CC(=O)O [aspartame] (HELM PEPTIDE1{D.F.[CO[*:1]]}$$$$V2.0) was run?
Its EC50 is 1300 ± 100 µM.

What about the Emax (hTAS1R2/hTAS1R3 [2]) of the same compound?
The Emax was 100%.

What about the EC50 (hTAS1R2/hTAS1R3 [1]; 0.0 μM lactisole) of the same compound?
The EC50 was 0.5 ± 0.1 mM.

And the Hill slope (hTAS1R2/hTAS1R3 [1])?
Its Hill slope is ~ 2.

Source: paper PMC2099433, “The binding site for neohesperidin dihydrochalcone at the human sweet taste receptor” (BMC Structural Biology, 2007)
